# In patent US20090076152A1, “Novel Compounds Active as Muscarinic Receptor Antagonists” (priority 2007, published 2009):
# Target: T1, human muscarinic M3 receptor (Homo sapiens, UniProt P20309)
# T1 construct: expressed in transfected cells
# Experiment: hM3 β-Lac potency assay (NFAT-Betalactamase reporter in CHO-K1 cells)
# Conditions: CHO cells recombinantly expressing human M3, NFAT β-lactamase reporter; inhibition of 80 nM carbamyl choline signal, 4 h; IC50 converted to Ki by Cheng-Prusoff; read-out: Cell based β-lactamase M3 Ki
# Method: M3 potency was determined in CHO-K1 cells transfected with the NFAT-Betalactamase gene. CHO (Chinese Hamster Ovary) cells recombinantly expressing the human muscarinic M3 receptor were transfected with the NFAT_β-Lac_Zeo plasmid. Cells were grown in DMEM with Glutamax-1, supplemented with 25 mM HEPES(Life Technologies 32430-027), containing 10% FCS (Foetal Calf Serum; Sigma F-7524), […] Sodium pyruvate (Sigma S-8636), NEM (non-Essential Amino Acids; Invitrogen 11140-035) and 200 μg/ml Zeocin (Invitrogen R250-01).
# Cells were harvested for assay when they reached 80-90% confluency using enzyme free cell Dissociation Solution (Life technologies 13151-014) incubated with the cells for 5 min at 37° C. in an atmosphere containing 5% CO2. Detached cells were collected in warmed growth media and centrifuged at 2000 rpm for 10 min, washed in PBS (Phosphate Buffered Saline; Life Technologies 14190-094) and centrifuged again as just described. The cells were re-suspended at 2×10^5 cells/ml in growth medium (composition as described above). 20 μl of this cell suspension was added to each well of a 384 well black clear bottomed plate (Greiner Bio One 781091-PFI). The assay buffer used was PBS supplemented with 0.05% Pluronic F-127 (Sigma 9003-11-6) and 2.5% DMSO. Muscarinic M3 receptor signalling was stimulated using 80 nM carbamyl choline (Aldrich N240-9) incubated with the cells for 4 h at 37° C./5% CO2 and monitored at the end of the incubation period using a Tecan SpectraFluor+ plate reader (λ—excitation 405 nm, emission 450 nm and 503 nm). M3 receptor antagonists under test were added to the assay at the beginning of the 4 h incubation period and compound activity measured as the concentration dependent inhibition of the carbamyl choline induced signal. Inhibition curves were plotted and IC50 values generated using a 4-parameter sigmoid fit and converted to Ki values using the Cheng-Prusoff correction and the KD value for carbamyl choline in the assay.
# T1 sequence (P20309 whole entry): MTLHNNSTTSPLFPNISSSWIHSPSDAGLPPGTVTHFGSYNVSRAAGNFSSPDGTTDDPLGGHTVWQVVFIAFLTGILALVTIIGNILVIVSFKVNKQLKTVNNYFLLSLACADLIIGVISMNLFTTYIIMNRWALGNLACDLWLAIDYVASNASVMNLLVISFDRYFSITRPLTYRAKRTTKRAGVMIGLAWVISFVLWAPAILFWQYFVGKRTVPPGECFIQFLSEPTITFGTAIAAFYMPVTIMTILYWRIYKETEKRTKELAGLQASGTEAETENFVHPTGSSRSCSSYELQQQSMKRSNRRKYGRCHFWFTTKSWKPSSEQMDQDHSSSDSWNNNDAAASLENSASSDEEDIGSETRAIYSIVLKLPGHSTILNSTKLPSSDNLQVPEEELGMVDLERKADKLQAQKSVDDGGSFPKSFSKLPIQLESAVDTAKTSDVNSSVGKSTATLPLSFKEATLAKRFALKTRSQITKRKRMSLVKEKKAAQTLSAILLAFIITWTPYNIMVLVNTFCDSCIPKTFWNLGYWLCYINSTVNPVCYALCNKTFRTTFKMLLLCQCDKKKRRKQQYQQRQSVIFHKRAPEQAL
row,Compound,Ki [nM]
1,"CC(C)N(CC[C@H](c1ccccc1)c1cc(CCOc2ccc(CCNCc3ccc(O)c(F)c3)cc2)ccc1O)C(C)C [Example 13, 2-[(1R)-3-(diisopropylamino)-1-phenylpropyl]-4-[2-(4-{2-[(3-fluoro-4-hydroxybenzyl)amino]ethyl}phenoxy)ethyl]phenol]",> 12.1
2,"CC(C)N(CC[C@H](c1ccccc1)c1cc(CCOc2ccc(CCNC(=O)[C@]34C[C@H]5C[C@H](C[C@H](C5)C3)C4)cc2)ccc1O)C(C)C [Example 6, (3S,5S,7S)-N-{2-[4-(2-{3-[(1R)-3-(diisopropylamino)-1-phenylpropyl]-4-hydroxyphenyl}ethoxy)phenyl]ethyl}adamantane-1-carboxamide]",4.99
3,"CC(C)N(CC[C@H](c1ccccc1)c1cc(CCOc2ccc(CCNC(=O)c3ccc(O)c(Cl)c3)cc2)ccc1O)C(C)C [Example 1, 3-Chloro-N-[2-(4-{2-[3-((1R)-3-diisopropylamino-1-phenyl-propyl)-4-hydroxy-phenyl]-ethoxy}-phenyl)-ethyl]-4-hydroxy-benzamide]",0.512
4,"CC(C)N(CC[C@H](c1ccccc1)c1cc(CCOc2ccc(CCNCc3cc(F)c(O)c(F)c3)cc2)ccc1O)C(C)C [Example 15, 4-{[2-(4-{2-[3-((1R)-3-Diisopropylamino-1-phenyl-propyl)-4-hydroxy-phenyl]-ethoxy}-phenyl)-ethylamino]-methyl}-2,6-difluoro-phenol]",1.55
5,"CC(C)N(CC[C@H](c1ccccc1)c1cc(CCOc2ccc(CCN(C)C)cc2)ccc1O)C(C)C [Example 8, 2-((1R)-3-Diisopropylamino-1-phenyl-propyl)-4-{2-[4-(2-dimethylamino-ethyl)-phenoxy]-ethyl}-phenol]",1.4
6,"CC(C)N(CC[C@H](c1ccccc1)c1cc(CCOc2ccc(CCNCc3cccc(F)c3O)cc2)ccc1O)C(C)C [Example 14, 2-[(1R)-3-(diisopropylamino)-1-phenylpropyl]-4-[2-(4-{2-[(3-fluoro-2-hydroxybenzyl)amino]ethyl}phenoxy)ethyl]phenol]",1.4
7,"CC(C)N(CC[C@H](c1ccccc1)c1cc(CCOc2ccc(CCNCc3cccc(Cl)c3)cc2)ccc1O)C(C)C [Example 10, 4-(2-{4-[2-(3-Chloro-benzylamino)-ethyl]-phenoxy}-ethyl)-2-((1R)-3-diisopropylamino-1-phenyl-propyl)-phenol]",7.73
8,"CC(C)N(CC[C@H](c1ccccc1)c1cc(CCOc2ccc(CCNC(=O)c3ccc(O)cc3Cl)cc2)ccc1O)C(C)C [Example 7, 2-Chloro-N-[2-(4-{2-[3-((1R)-3-diisopropylamino-1-phenyl-propyl)-4-hydroxy-phenyl]-ethoxy}-phenyl)-ethyl]-4-hydroxy-benzamide]",0.727
9,CC(C)N(CC[C@H](c1ccccc1)c1cc(CCOc2ccc(CCNC(=O)CC3CC3)cc2)ccc1O)C(C)C [Example 4],1.19
10,"CC(C)N(CC[C@H](c1ccccc1)c1cc(CCOc2ccc(CCNC(=O)Cc3ccc(O)c(Cl)c3)cc2)ccc1O)C(C)C [Example 2, 2-(3-Chloro-4-hydroxy-phenyl)-N-[2-(4-{2-[3-((1R)-3-diisopropylamino-1-phenyl-propyl)-4-hydroxy-phenyl]-ethoxy}-phenyl)-ethyl]-acetamide]",1.7
11,"CC(C)N(CC[C@H](c1ccccc1)c1cc(CCOc2ccc(CCNCc3ccc(O)c(Cl)c3)cc2)ccc1O)C(C)C [Example 12, 2-chloro-4-[({2-[4-(2-{3-[(1R)-3-(diisopropylamino)-1-phenylpropyl]-4-hydroxyphenyl}ethoxy)phenyl]ethyl}amino)methyl]phenol]",> 12.5
12,"CC(C)N(CC[C@H](c1ccccc1)c1cc(CCOc2ccc(CCNC3CCCCC3)cc2)ccc1O)C(C)C [Example 11, 4-{2-[4-(2-Cyclohexylamino-ethyl)-phenoxy]-ethyl}-2-((1R)-3-diisopropylamino-1-phenyl-propyl)-phenol]",6.06
13,"CC(C)N(CC[C@H](c1ccccc1)c1cc(CCOc2ccc(CCNCc3ccccc3)cc2)ccc1O)C(C)C [Example 9, 4-{2-[4-(2-Benzylamino-ethyl)-phenoxy]-ethyl}-2-((1R)-3-diisopropylamino-1-phenyl-propyl)-phenol]",0.785
14,"CC(C)N(CC[C@H](c1ccccc1)c1cc(CCOc2ccc(CCNC(=O)C3CCCC3)cc2)ccc1O)C(C)C [Example 3, Cyclopentanecarboxylic acid [2-(4-{2-[3-((1R)-3-diisopropylamino-1-phenyl-propyl)-4-hydroxy-phenyl]-ethoxy}-phenyl)-ethyl]-amide]",3.59

# More lines, now with the values ahead:
row,Ki [nM],Compound
1,> 6.87,"CC(C)N(CC[C@H](c1ccccc1)c1cc(CCOc2ccc(CCNCc3cc(Cl)c(O)c(Cl)c3)cc2)ccc1O)C(C)C [Example 16, 2,6-Dichloro-4-{[2-(4-{2-[3-((1R)-3-diisopropylamino-1-phenyl-propyl)-4-hydroxy-phenyl]-ethoxy}-phenyl)-ethylamino]-methyl}-phenol]"
2,0.751,"CC(C)N(CC[C@H](c1ccccc1)c1cc(CCOc2ccc(CCNC(=O)c3ccc(F)c(O)c3)cc2)ccc1O)C(C)C [Example 25, 4-Fluoro-N-[2-(4-{2-[3-((1R)-3-diisopropylamino-1-phenyl-propyl)-4-hydroxy-phenyl]-ethoxy}-phenyl)-ethyl]-3-hydroxy-benzamide]"
3,1,"CC(C)N(CC[C@H](c1ccccc1)c1cc(CCOc2ccc(CCNCc3cccc(O)c3Cl)cc2)ccc1O)C(C)C [Example 17, 2-chloro-3-[({2-[4-(2-{3-[(1R)-3-(diisopropylamino)-1-phenylpropyl]-4-hydroxyphenyl}ethoxy)phenyl]ethyl}amino)methyl]phenol]"
4,1.32,"CC(C)N(CC[C@H](c1ccccc1)c1cc(CCOc2ccc(CCNS(=O)(=O)c3ccc(O)cc3)cc2)ccc1O)C(C)C [Example 27, N-[2-(4-{2-[3-((1R)-3-diisopropylamino-1-phenyl-propyl)-4-hydroxy-phenyl]-ethoxy}-phenyl)-ethyl]-4-hydroxy-benzenesulfonamide]"
5,2.69,"CC(C)N(CC[C@H](c1ccccc1)c1cc(CCOc2ccc(CCNCc3cccc(O)c3F)cc2)ccc1O)C(C)C [Example 19, 3-[({2-[4-(2-{3-[(1R)-3-(diisopropylamino)-1-phenylpropyl]-4-hydroxyphenyl}ethoxy)phenyl]ethyl}amino)methyl]-2-fluorophenol]"
6,7.11,"CC(C)N(CC[C@H](c1ccccc1)c1cc(CCOc2ccc(CCNCc3cc(F)cc(F)c3O)cc2)ccc1O)C(C)C [Example 22, 2-{[2-(4-{2-[3-((1R)-3-Diisopropylamino-1-phenyl-propyl)-4-hydroxy-phenyl]-ethoxy}-phenyl)-ethylamino]-methyl}-4,6-difluoro-phenol]"
7,2.15,"CC(C)N(CC[C@H](c1ccccc1)c1cc(CCOc2ccc(CCNC(=O)c3cc(Cl)c(O)c(Cl)c3)cc2)ccc1O)C(C)C [Example 24, 3,5-Dichloro-N-[2-(4-{2-[3-((1R)-3-diisopropylamino-1-phenyl-propyl)-4-hydroxy-phenyl]-ethoxy}-phenyl)-ethyl]-4-hydroxy-benzamide]"
8,0.705,"CC(C)N(CC[C@H](c1ccccc1)c1cc(CCOc2ccc(CCNC(=O)c3ccc(O)cc3)cc2)ccc1O)C(C)C [Example 26, 4-Hydroxy-N-[2-(4-{2-[3-((1R)-3-diisopropylamino-1-phenyl-propyl)-4-hydroxy-phenyl]-ethoxy}-phenyl)-ethyl]-benzamide]"
9,> 10.4,"CC(C)N(CC[C@H](c1ccccc1)c1cc(CCOc2ccc(CCNCc3cccc(O)c3)cc2)ccc1O)C(C)C [Example 18, 2-((1R)-3-Diisopropylamino-1-phenyl-propyl)-4-(2-{4-[2-(3-hydroxy-benzylamino)-ethyl]-phenoxy}-ethyl)-phenol]"
10,> 6.66,"CC(C)N(CC[C@H](c1ccccc1)c1cc(CCOc2ccc(CCNCc3ccc(F)c(O)c3)cc2)ccc1O)C(C)C [Example 23, 2-[(1R)-3-(diisopropylamino)-1-phenylpropyl]-4-[2-(4-{2-[(4-fluoro-3-hydroxybenzyl)amino]ethyl}phenoxy)ethyl]phenol]"
11,> 5.75,"CC(C)N(CC[C@H](c1ccccc1)c1cc(CCOc2ccc(CCNCc3cc(O)cc(O)c3)cc2)ccc1O)C(C)C [Example 21, 5-{[2-(4-{2-[3-((1R)-3-Diisopropylamino-1-phenyl-propyl)-4-hydroxy-phenyl]-ethoxy}-phenyl)-ethylamino]-methyl}-benzene-1.3-diol]"
12,> 5.89,"CC(C)N(CC[C@H](c1ccccc1)c1cc(CCOc2ccc(CCNCc3cc(F)c(O)c(Cl)c3)cc2)ccc1O)C(C)C [Example 20, 2-Chloro-4-{[2-(4-{2-[3-((1R)-3-diisopropylamino-1-phenyl-propyl)-4-hydroxy-phenyl]-ethoxy}-phenyl)-ethylamino]-methyl}-6-fluoro-phenol]"
